{
  "source": "patent US8012940B2",
  "about": "“Utilization of anti-neuropathic pain effect of D-allose and D-psicose” (Teikoku Seiyaku Co., Ltd., priority 2005, dated 2011)",
  "key": {"leukocyte": {"tested_on": "leukocyte", "details": "in vitro, cited from earlier work"}, "Solubility in water": {"experiment": "Solubility in water", "format": "physicochemical"}, "[1]": {"tested_on": "Chung model as a rat neuropathic pain model", "experiment": "von Frey test, pain threshold in the Chung model", "format": "in vivo", "details": "for pain threshold at the von Frey test: vs distilled water-dosed group; for pain threshold, dose dependence: 1 to 6 g/kg oral", "protocol": "Male SD rats of age 6 weeks were divided into groups, each group consisting of 10 rats. So as to examine the effect of a test substance on neuropathic pain, the Chung model was prepared. Specifically, unilateral 5-th and 6-th lumbar pulp nerves of the lumbar pulp nerves were completely knotted at a site as close as possible to lumbar vertebrae. After a 10-day recovery period, the von Frey test was done on the footpad on the surgery side, to measure the pain threshold. The von Frey test was done three times at a 1-week interval as drug holiday. At the first test, the effect of D-allose on the pain threshold was examined; and at the second test and the third test, the effects of D-psicose and a mixture of D-allose and D-psicose on the pain threshold were examined. The test substances were all dissolved in distilled water. The dose in volume was 5 mL/kg for oral administration. The pain threshold was measured immediately before the administration of test substances, and 15 minutes, 30 minutes, 60 minutes and 120 minutes after the administration. The results are expressed as mean and standard error. The significance of the mean was tested by the Dunnett's multiple test. Neuropathic pain models are frequently used as human neuralgia models for making research works on pain and screening for analgesics. […] The Chung model as the neuropathic pain model used in the research works is a model with a characteristic feature such that the model is afflicted with a strong pain on contact stimulation, and is known that the model is annoyed with a pain very similar to human neuralgia (Exp. Brain Res., 113, 200-206, 1997). In such model, the von Frey test is frequently used so as to assay the pain intensity via contact. The von Frey test is a method for observing whether or not an animal when the footpad is pressed with a fine metal wire withdraws the leg. When the animal withdraws the leg, the force just pressing the footpad is defined the threshold then."}},
  "data": [
    {"smiles": "O=C(CO)[C@H](O)[C@H](O)[C@H](O)CO", "note": "[D-psicose]", "values": [
      {"measurement": "MCP-1 secretion", "setting": "leukocyte; similar experiments", "result": "MCP-1 secretion-suppressing action"},
      {"measurement": "active oxygen scavenging", "setting": "leukocyte; similar experiments", "result": "active oxygen-scavenging action"},
      {"measurement": "solubility in water", "setting": "Solubility in water", "result": "highly soluble in water"},
      {"measurement": "pain threshold at the von Frey test", "setting": "[1]; 1 g/kg oral, 15 minutes after administration", "result": "not significantly different"},
      {"measurement": "pain threshold at the von Frey test", "setting": "[1]; 3 g/kg oral, 15 and 30 minutes after administration", "result": "significant increase"},
      {"measurement": "pain threshold, dose dependence", "setting": "[1]; single administration", "result": "highly raised, in a manner proportional to the dose"},
      {"measurement": "increase of the threshold compared with the administration of D-allose", "setting": "[1]; single administration, oral", "result": "greater"}
    ]},
    {"smiles": "O=C[C@H](O)[C@H](O)[C@H](O)[C@H](O)CO", "note": "[D-allose]", "values": [
      {"measurement": "active oxygen generation", "setting": "leukocyte; leukocyte", "result": "action of suppressing active oxygen generation"},
      {"measurement": "solubility in water", "setting": "Solubility in water", "result": "highly soluble in water"},
      {"measurement": "pain threshold at the von Frey test", "setting": "[1]; 1 g/kg oral, N=10", "result": "not significantly different"},
      {"measurement": "pain threshold at the von Frey test", "setting": "[1]; 3 g/kg oral, 15 minutes after administration", "result": "significant increase"},
      {"measurement": "pain threshold at the von Frey test", "setting": "[1]; 6 g/kg oral, 15, 30 and 60 minutes after administration", "result": "significant increase"},
      {"measurement": "pain threshold, dose dependence", "setting": "[1]; single administration", "result": "highly raised, in a manner proportional to the dose"}
    ]}
  ]
}
